This is an account of results in the Deep4Chem optical property database.

This data set is described as follows: solvent given as SMILES.

For the compound `CCCCCCc1ccc(/C=C/c2ccc(CCCCCC)s2)s1`, the emission maximum (in Cc1ccccc1) was found to be 416 nm.

On to `CCCCC1(c2ccccc2)Nc2c(-c3ccc(N(C)C)cc3)ccc(-c3ccc(N(C)C)cc3)c2N=C1c1ccccc1` (stereo not given), for which the emission maximum by setting is: (in C1CCOC1) 568 nm; (in CC#N) 588 nm; (in CCCCCC) 530 nm; (in CN(C)C=O) 596 nm; (in Cc1ccccc1) 547 nm; (in ClC(Cl)Cl) 561 nm.

The compound `c1ccc(-c2cc(-c3ccc4c(c3)C3(c5ccccc5-c5ccccc53)c3cc(-c5cc(-c6ccccn6)nc(-c6ccccn6)c5)ccc3-4)cc(-c3ccccn3)n2)nc1` gave an emission maximum (in ClC(Cl)Cl) of 395 nm.

For `CC(C)(C)c1ccc2c(c1)c1cc(C(C)(C)C)ccc1n2-c1ccc(C(=O)c2ccc(-n3c4ccc(C(C)(C)C)cc4c4cc(C(C)(C)C)ccc43)nc2)cn1`, the emission maximum turned out to be 496.58 nm (in C1CCOC1), 465.19 nm (in Cc1ccccc1) and 532.91 nm (in ClCCl).

In turn, `CC(C)(C)NC(=O)c1ccc2ccc3cccc4c3c2c1c1c2ccccc2c2ccccc2c41` registered an emission maximum (in ClCCl) of 425 nm.

`C(=C\c1cccnc1)/c1ccc(N(c2ccccc2)c2ccccc2)cc1`: the emission maximum reads like this: (in CC#N) 476 nm; (in CCCCCC) 403 nm.

With `N#Cc1nn(-c2ccccc2)nc1N1CCCC1`, under “in CC#N”, the emission maximum came to 423 nm.

`N#Cc1ccc(C2=CC3=c4cc(-c5ccc(C#N)cc5)c5nc(C(F)(F)C(F)(F)C(F)(F)F)nc6c(-c7ccc(C#N)cc7)cc(c4c65)C4=CC(c5ccc(C#N)cc5)=C5N=C(C(F)(F)C(F)(F)C(F)(F)F)N=C2C5C43)cc1` (stereo not given) displayed an emission maximum (in C1CCOC1) of 518 nm.

On to `CCCCCCCCCCCCN1C(=O)c2c(c3ccc4cc(-c5ccccc5)c(OC)cc4c3c3c2ccc2cc(-c4ccccc4)c(OC)cc23)C1=O`, for which the emission maximum (in ClCCl) came out at 526 nm.

Compound `CCCCCCCCCCCCN1C(=O)c2c(c3ccc4cc(-c5ccc(-c6ccccc6)cc5)c(OC)cc4c3c3c2ccc2cc(-c4ccc(-c5ccccc5)cc4)c(OC)cc23)C1=O` yielded an emission maximum (in ClCCl) of 527 nm.

For `O=S1(=O)C2=C(c3ccccc31)C1(C3=C(c4ccccc41)S(=O)(=O)c1ccccc13)c1ccccc12`, for the setting “in ClCCl”, the emission maximum is listed as 444 nm.

Consider `c1ccc2c(c1)c1ccccc1n2-c1ccc2cc(-c3ccc(-c4ccc(-c5cc6ccc(-n7c8ccccc8c8ccccc87)cc6o5)cc4)cc3)oc2c1`, for which the emission maximum is reported as 419 nm (in Cc1ccccc1) and 441 nm (in c1ccc2c(c1)c1ccccc1n2-c1ccc(-c2ccc(-n3c4ccccc4c4ccccc43)cc2)cc1).

As for `O=c1c2cc(C#Cc3ccccc3)ccc2nc2ccc(C#Cc3ccccc3)cn12`, the emission maximum (in ClCCl) is 478 nm.

Turning to `N#CC(C#N)=Cc1ccc(-c2ccc(O)c(-c3nc4ccccc4s3)c2)o1`, the emission maximum by setting is: (in CCO) 632 nm; (in ClCCl) 612 nm; (in O) 652 nm.

On to `CCC1(CC)c2cc(-c3ccc(-c4ccc5c(c4)C(CC)(CC)c4cc(C(C)(C)C)ccc4-5)cc3)ccc2-c2ccc(C(C)(C)C)cc21`, for which the emission maximum (in CO) is listed as 383.9 nm.

Regarding `COc1ccc2c(-c3nc(-c4cccc(C)c4)no3)cc(=O)oc2c1`, the emission maximum (in CCO) is given as 464 nm and the emission maximum (in ClC(Cl)Cl) came to 450 nm.

As to `CC1=CC(C)=[N+]2C1=C(c1c3ccccc3c(-c3ccccc3)c3ccccc13)c1c(C)cc(C)n1[B-]2(F)F`, the emission maximum by setting is: (in CC#N) 508 nm; (in CCCCCC) 514 nm; (in CCO) 512 nm; (in CN(C)C=O) 515 nm; (in Cc1ccccc1) 519 nm; (in ClCCl) 515 nm.

`Clc1ccc(/C=C/c2ccncn2)cc1` displayed an emission maximum (in ClCCl) of 411 nm.

`c1ccc2c(c1)c1ccccc1n2-c1ccc(-c2nnc(-c3ccc(-n4c5ccccc5c5ccccc54)cc3)o2)cc1`: the emission maximum reads like this: (in Cc1ccccc1) 386 nm; (in O=P(c1ccccc1)(c1ccccc1)c1ccccc1Oc1ccccc1P(=O)(c1ccccc1)c1ccccc1) 414 nm.

Consider `C1=C(c2ccccc2)[Si](c2ccccc2)(c2ccccc2)c2ccccc21`, for which the emission maximum (in ClCCl) was determined as 400 nm.

With `CN(C)c1ccc2c3c(c(=O)oc2c1)C=c1cc2c(cc1O3)=[N+](CCC(=O)O)CCC2`, the emission maximum is given as 644 nm (in CC#N), 640 nm (in CO), 638 nm (in ClCCl) and 641 nm (in O).

As to `CC1(C)C(/C=C/C2=C(Cl)C(=C/C=C3/N(Cc4ccc(C(=O)O)cc4)c4ccccc4C3(C)C)/CCC2)=[N+](Cc2ccc(C(=O)O)cc2)c2ccccc21`, the emission maximum (in CO) came out at 814 nm.

Under “in ClC(Cl)Cl”, `O=C1CC(c2ccc(C(F)(F)F)cc2)c2c(c3ccccc3c3nc4ccccc4nc23)O1` (stereo not given) yielded an emission maximum of 433 nm.

The compound `CC(=O)c1ccc(C#Cc2ccc3c(N(C)C)cc(-c4ccccc4)cc3c2)cc1` gave an emission maximum (in ClCCl) of 577 nm.

As for `Cc1cc(O)c(C(C)C)cc1/N=C/c1ccc(C(F)(F)F)cc1`, the emission maximum (in C1CCCCC1) turned out to be 398 nm; the emission maximum (in C1CCOC1) was found to be 426 nm; the emission maximum (in C1COCCO1) is given as 424 nm; the emission maximum (in CC#N) is listed as 425 nm; the emission maximum (in CC(C)(C)O) was 431 nm; the emission maximum (in CC(C)O) was 434 nm. Moreover, the emission maximum is 401 nm (in CCCCCC); 436 nm (in CCCCO); 429 nm (in CCO); 421 nm (in CCOC(C)=O); 434 nm (in CN(C)C=O); 434 nm (in CO). The emission maximum was 439 nm (in CS(C)=O); 430 nm (in ClC(Cl)Cl); 424 nm (in ClCCl); 449 nm (in O); 438 nm (in OCCO).

For the compound `c1ccc(Cc2c3ccc(=[N+]4CCCCC4)cc-3oc3cc(N4CCCCC4)ccc23)cc1`, the emission maximum (in ClCCl) is on record as 582 nm.

The compound `c1ccc2c(c1)ccc1ccc3ccc4ccc5ccccc5c4c3c12` returned an emission maximum (in ClCCl) of 476 nm.

For `c1ccc(C2=C(c3ccccc3)c3cccc4c5c(cc(c34)O2)=NC2CCCCC2N=5)cc1` (stereo not given), the emission maximum (in ClCCl) was found to be 545 nm.

For `CCN(CC)c1ccc(-c2cc3c(s2)c(C(=O)OC)cc(=O)n3C)cc1`, the emission maximum (in C1CCOC1) worked out at 543 nm; the emission maximum (in CC#N) was 605 nm; the emission maximum (in CCO) was 516 nm; the emission maximum (in CN(C)C=O) came to 604 nm; the emission maximum (in CO) came to 503 nm; the emission maximum (in CS(C)=O) amounted to 615 nm. For the same compound, the emission maximum is on record as 504 nm (in Cc1ccccc1), 545 nm (in ClC(Cl)Cl) and 562 nm (in ClCCl).

In turn, `CCN(CC)c1ccc2c(c1)oc(=O)c1c(C)nc3c(cnn3-c3ccccc3)c12` had an emission maximum (in ClCCl) of 439 nm.

The compound `COc1ccc(-n2nc(C#N)c(N3CCC(N4CCCCC4)CC3)n2)cc1` gave an emission maximum (in CC#N) of 403 nm.

`COC(=O)c1ccc(Oc2ccc3c4c(cccc24)C(=O)N(c2c(C(C)C)cccc2C(C)C)C3=O)cc1` had an emission maximum (in ClCCl) of 421 nm.

For the compound `C(=C\c1nc2ccccc2o1)/c1ccccc1`, the emission maximum is, setting by setting: (in C1CCCCC1) 380 nm; (in CO) 380 nm.

`CC(C)[Si]1(C(C)C)c2cc(N(C)C)ccc2-c2ccc(C(F)(F)F)cc21` yielded an emission maximum (in C1CCCCC1) of 402 nm; an emission maximum (in CC#N) of 440 nm; an emission maximum (in CCO) of 422 nm; an emission maximum (in CCOCC) of 410 nm; an emission maximum (in CS(C)=O) of 451 nm; an emission maximum (in ClCCl) of 423 nm. The emission maximum (in c1ccccc1) was 410 nm.

Compound `C#Cc1ccc(C#Cc2cnc(C#Cc3ccccc3)nc2)cc1` had an emission maximum (in C1CCCCC1) of 415 nm.

In turn, `Cc1ccc(-c2cc(-c3ccccc3)c3c(N)nc(N4CCCC4)c(C#N)c3n2)cc1` showed an emission maximum (in CC#N) of 528 nm; an emission maximum (in CC(C)=O) of 524 nm; an emission maximum (in CC(C)O) of 518 nm; an emission maximum (in CO) of 527 nm; an emission maximum (in ClC(Cl)Cl) of 510 nm; an emission maximum (in ClCCl) of 517 nm. Also, where the note is “in c1ccccc1”, the emission maximum was determined as 504 nm.

In the case of `CCCOc1ccc(/C=C/C=C/C=C/c2ccc([N+](=O)[O-])cc2)cc1`, the emission maximum reads like this: (in CC1CCCCC1) 488 nm; (in CC#N) 747 nm; (in Cc1ccccc1) 546 nm; (in ClCCl) 699 nm.

On to `Cc1nc2cccc(-c3nc4ccccc4s3)c2c(=O)[nH]1`, for which the emission maximum (in CN(C)C=O) is reported as 416 nm.

For the compound `CC(C)(C)c1ccc2ccc3c(C(C)(C)C)ccc4ccc1c2c43`, the emission maximum runs as follows: (in CCCCCC) 379 nm; (in CO) 379 nm; (in ClCCl) 380 nm.

`O=c1oc2cccc3c4cccc5ccc6c7ccccc7c1c(c23)c6c54` yielded an emission maximum (in C1CCOC1) of 446 nm.

`C1=C(c2ccccc2)C(c2ccccc2)=CC1c1ccccc1` gave an emission maximum (in C1CCOC1) of 345 nm.

Turning to `C=CCOC(=O)C(C#N)=C1C=C(/C=C/c2ccc(N(C)C)cc2)OC(/C=C/c2ccc(N(C)C)cc2)=C1`, the emission maximum runs as follows: (in C1CCOC1) 595 nm; (in C1COCCO1) 564 nm; (in CC#N) 624 nm; (in CN(C)C=O) 616 nm; (in Cc1ccccc1) 556 nm; (in ClC(Cl)Cl) 585 nm. Also, the emission maximum is, setting by setting: (in ClCCCl) 614 nm; (in ClCCl) 601 nm.

With `CCCCOc1ccc(-c2cc(-c3ccc(OCCCC)cc3)c3ccc4c(-c5ccc(OCCCC)cc5)cc(-c5ccc(OCCCC)cc5)c5ccc2c3c54)cc1`, the emission maximum (in ClC(Cl)Cl) stood at 433 nm.

Turning to `COCCC1=Cc2nc1ccc1[nH]c(cc1CCOC)c1nc(c(N3C(=O)CCCC3=O)cc3[nH]c2cc3CCOC)C(CCOC)=C1`, under “in Cc1ccccc1”, the emission maximum stood at 646 nm.

The compound `COC(=O)c1[nH]c(-c2ccc(OC)cc2)c2nnc3ccc(OC)cc3c12` showed an emission maximum (in ClCCl) of 504 nm.
